Assay results as given in PMC9000480, “Enhancement of the Anti-Inflammatory Activity of NSAIDs by Their Conjugation with 3,4,5-Trimethoxybenzyl Alcohol” (Molecules, 2022).
Marks after values point to notes of the source that are not given here.

Columns and labels:
soybean LOX = biological target: T1, soybean LOX (Glycine max, UniProt P08170); test: inhibition of soybean lipoxygenase; assay type: biochemical; conditions: for % inhibition of lipoxygenase: highest soluble concentration; for IC50: after 7 min of incubation, sodium linoleate 100 μM, pH 9.0, 28 °C
T1 construct: purchased Sigma (St. Louis, MO, USA)
T1 sequence (P08170 1-839): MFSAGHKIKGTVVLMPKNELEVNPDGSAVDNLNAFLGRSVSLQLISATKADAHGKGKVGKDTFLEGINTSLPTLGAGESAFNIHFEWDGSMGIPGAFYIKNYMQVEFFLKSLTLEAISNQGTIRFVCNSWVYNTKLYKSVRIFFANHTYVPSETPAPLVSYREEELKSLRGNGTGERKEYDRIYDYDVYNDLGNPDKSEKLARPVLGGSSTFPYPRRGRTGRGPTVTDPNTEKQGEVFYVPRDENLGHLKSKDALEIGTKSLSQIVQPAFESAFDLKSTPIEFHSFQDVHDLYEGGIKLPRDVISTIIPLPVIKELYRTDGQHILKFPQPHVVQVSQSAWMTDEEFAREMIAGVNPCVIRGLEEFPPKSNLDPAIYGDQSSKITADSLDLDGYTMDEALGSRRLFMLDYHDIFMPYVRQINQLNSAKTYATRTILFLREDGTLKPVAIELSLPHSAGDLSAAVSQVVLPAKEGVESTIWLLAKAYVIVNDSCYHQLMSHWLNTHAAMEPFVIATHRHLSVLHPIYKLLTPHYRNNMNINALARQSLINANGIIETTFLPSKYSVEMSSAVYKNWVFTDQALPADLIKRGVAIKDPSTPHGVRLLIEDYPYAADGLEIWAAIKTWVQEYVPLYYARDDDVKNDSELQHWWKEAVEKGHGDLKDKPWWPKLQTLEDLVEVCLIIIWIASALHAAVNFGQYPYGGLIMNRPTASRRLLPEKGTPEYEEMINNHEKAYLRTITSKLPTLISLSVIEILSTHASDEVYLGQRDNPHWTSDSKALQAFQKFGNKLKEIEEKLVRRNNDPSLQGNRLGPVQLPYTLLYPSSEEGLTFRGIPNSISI
Protocol: Soybean LOX, because of structural and functional similarities with mammalian LOXs, is commonly used for the study of anti-inflammatory agents.
The reaction mixture contained (final concentration) the test compounds, dissolved in ethanol (10–300 μM), or the solvent (control), soybean LOX, dissolved in 0.9% NaCl solution (250 u/mL) and sodium linoleate (100 μM), in Tris–HCl buffer, pH 9.0. […] For the estimation of the type of inhibition, the above experiments were repeated, using 1 mM sodium linoleate, which is higher than the saturating substrate concentration.

[1] = tested on: carrageenan-induced rat paw edema; test: carrageenan-induced rat paw edema; assay type: in vivo; conditions: i.p. 0.15 mmol/kg, 3.5 h post carrageenan, female rats, vs controls given carrageenan only; for inhibition in vivo at 150 µmol/kg: Rattus norvegicus, ip, 3.5 h
Protocol: Carrageenan-induced inflammation model has significant value for evaluating anti-inflammatory agents. Carrageenan administration causes an acute and local inflammatory response. In the early phase (0–1 h), bradykinin, histamine, tachykinins, complement and reactive oxygen and nitrogen species are involved, whereas prostaglandins and various cytokines such as IL-1β, TNF-α are released in the second phase, more than one hour after administration.
Total of 0.1 mL of an aqueous solution of carrageenan (1% w/v) was injected i.d. into the right hind paw of rats, with the left paw serving as control. The tested compounds (suspended in water with a few drops of Tween 80) were given i.p. (0.15 mmol/kg) 5 min before the carrageenan administration. After 3.5 h, the hind paws were excised and weighed separately. The produced edema was estimated as paw weight increase.

human recombinant COX-2 = tested on: T2, human recombinant COX-2; test: COX Inhibitor Screening Assay kit, COX-2; assay type: biochemical; conditions: compound 0.05 μM, arachidonic acid 0.1 μM
T2 construct: purchased Cayman Chemical Co., Ann Arbor, MI, USA
Protocol: COX inhibition was estimated using the “COX Inhibitor Screening Assay” kit (Cayman Chemical Co., Ann Arbor, MI, USA).
(§1) The effect of compounds on COX-1 and COX-2 activity was measured using a commercial kit and applying the instructions of the manufacturer. The kit uses ovine COX-1 and human recombinant COX-2 enzymes. The assay measures PGF2a produced by SnCl2 reduction of COX-derived PGH2. The prostanoid product was quantified via enzyme immunoassay using a broadly specific antibody that binds to all the major prostaglandin compounds.

ovine COX-1 = tested on: T3, ovine COX-1; test: COX Inhibitor Screening Assay kit, COX-1; assay type: biochemical; conditions: compound 0.05 μM, arachidonic acid 0.1 μM
T3 construct: purchased Cayman Chemical Co., Ann Arbor, MI, USA
Excerpt: […]. κ-Carrageenan and lipoxygenase type I-B from soybean were purchased from Sigma (St. Louis, MO, USA). COX inhibition was estimated using the “COX Inhibitor Screening Assay” kit (Cayman Chemical Co., Ann Arbor, MI, USA). For the in vivo experiments, female Wistar rats (160–180 g, 4–5 months old) were kept in the Centre of the School of Veterinary Medicine (EL54 BIO42), Aristotelian University of Thessaloniki, which is registered by the official state veterinary authorities (presidential degree 56/2013, in harmonization with the European Directive 2010/63/EEC). The Animal Ethics Committee of the Prefecture of Central Macedonia (no. 270079/2500) approved the experimental protocols.
as §1

[2] = tested on: rat hepatic microsomal membranes; test: Fe(II)-ascorbate induced lipid peroxidation of rat hepatic microsomal membranes; conditions: 1 mM, after 45 min of incubation
Protocol: Enzymatically inactivated rat hepatic microsomal membranes, rich in polyunsaturated fatty acids, were used and peroxidation was induced by Fe(II)-ascorbate. Compounds 21 and 22, expected to exert antioxidant activity due to the tyrosine phenolic group, were tested.
The peroxidation of heat-inactivated (90°, 90 s) rat liver microsomal fraction was induced by ascorbic acid (0.2 mM) and ferrous sulphate (10 μΜ). The studied compounds, in dimethylsulfoxide, were added at 1 mM. Aliquots were taken from the incubation mixture (37 °C) for 45 min. Lipid peroxidation was assessed spectrophotometrically (535/600 nm) as 2-thiobarbituric acid reactive material.

[3] = preliminary stability with rat plasma (TLC); assay type: in vitro ADME; conditions: acetone-water with rat plasma added, 37 °C, 24 h
Protocol: (§2) In a preliminary stability control experiment, compound 16, with the highest anti-inflammatory activity, was dissolved in an acetone-water mixture and incubated for 72 h at 37 °C. Samples were tested by thin layer chromatography (TLC) at the time of the preparation and after 2.5, 5, 24, 48, and 72 h. The same experiment was repeated, but plasma from a healthy rat was added, and tested by TLC at the time of preparation and after 24 h of incubation at 37 °C.
(§3) A solution of 16 in a 4:1 acetone–water mixture (1 mM) was prepared and 5 μL of this were applied on a TLC silica gel aluminum sheet and developed with petroleum ether-ethyl acetate (1:1), at the time of preparation and after 2.5, 5, 24, 48, and 72 h of incubation (37 °C). The same experiment was repeated, adding 1 mL of rat plasma. TLC was performed at the time of preparation and after 24 h.

[4] = preliminary stability in acetone-water (TLC); assay type: physicochemical; conditions: 4:1 acetone-water, 1 mM, 37 °C, up to 72 h
Protocol: as §2, §3

| SMILES | melting point | inhibition in vivo at 150 µmol/kg [1] | IC50 (soybean LOX) | further results |
| --- | --- | --- | --- | --- |
| COc1ccc2cc(C(C)C(=O)N3CCCC3C(=O)OCc3cc(OC)c(OC)c(OC)c3)ccc2c1 (stereo not shown) [Compound 20, 3,4,5-Trimethoxybenzyl1-(2-(6-methoxynaphthalen-2-yl)propanoyl) pyrrolidine-2-carboxylate] | 50 to 53 °C | 37% | – | % inhibition of lipoxygenase (soybean LOX; at 100 μΜ): 40% |
| CC(C(=O)O)c1cccc(C(=O)c2ccccc2)c1 (stereo not shown) [Ketoprofen] | – | – | – | COX-2 % Inhibition (human recombinant COX-2): 49%; COX-1 % Inhibition (ovine COX-1): 94% |
| COc1cc(COC(=O)CCNC(=O)C(C)c2ccc(CC(C)C)cc2)cc(OC)c1OC (stereo not shown) [Compound 15, 3,4,5-Trimethoxybenzyl 3-(2-(4-isobutylphenyl)propanamido)propanoate] | 73 to 75 °C | 35% | 160 µM | – |
| COc1cc(COC(=O)C2CCCN2C(=O)C(C)c2ccc(CC(C)C)cc2)cc(OC)c1OC (stereo not shown) [Compound 18] | 85 to 87 °C | 49% | 83 µM | – |
| COc1ccc2cc([C@H](C)C(=O)NCCC(=O)OCc3cc(OC)c(OC)c(OC)c3)ccc2c1 [Compound 17, (S)-3,4,5-trimethoxybenzyl 3-(2-(6-methoxynaphthalen-2-yl)propanamido)propanoate] | – | 23% | 41 µM | – |
| COC(=O)C1CCCN1C(=O)Cc1c[nH]c2ccccc12 (stereo not shown) [Compound 14a, 1-(2-(1H-indol-3-yl)acetyl)pyrrolidine-2-carboxylic acid (14) methyl ester] | – | 0% | – | – |
| CC(C)Cc1ccc(C(C)C(=O)O)cc1 (stereo not shown) [Ibuprofen, reference compound] | – | 36% | – | COX-1 % Inhibition (ovine COX-1): 68%; % Edema Inhibition [1]: 36 ** % |
| COc1ccc2cc([C@H](C)C(=O)O)ccc2c1 [Naproxen] | – | 11% | – | COX-2 % Inhibition (human recombinant COX-2): 17%; COX-2 % Inhibition (human recombinant COX-2; listed as naproxen): weak inhibitor; COX-1 % Inhibition (ovine COX-1): 34%; COX-1 % Inhibition (ovine COX-1; listed as naproxen): mild activity |
| COC(=O)C1CCCN1C(=O)C(C)c1ccc(CC(C)C)cc1 (stereo not shown) [Compound 8a] | – | 20% | – | – |
| COc1cc(COC(=O)C(C)NC(=O)Cc2c[nH]c3ccccc23)cc(OC)c1OC (stereo not shown) [Compound 23, 3,4,5-Trimethoxybenzyl 2-(2-(1H-indol-3-yl)acetamido)propanoate] | – | 40.5% | – | % inhibition of lipoxygenase (soybean LOX; at 150 μΜ): 15% |
| COc1cc(COC(=O)C2CCCN2C(=O)C(C)c2cccc(C(=O)c3ccccc3)c2)cc(OC)c1OC (stereo not shown) [Compound 19, 3,4,5-Trimethoxybenzyl 1-(2-(3-benzoylphenyl)propanoyl)pyrrolidine-2 carboxylate] | – | 51% | 140 µM | – |
| COc1cc(COC(=O)C(Cc2ccc(O)cc2)NC(=O)C(C)c2ccc(CC(C)C)cc2)cc(OC)c1OC (stereo not shown) [Compound 21, 3,4,5-Trimethoxybenzyl3-(4-hydroxyphenyl)-2-(2(4-isobutylphenyl)propanamido) propanoate] | 86 to 88 °C | 67% | 64 µM | COX-1 % Inhibition (ovine COX-1): 51%; effect against lipid peroxidation [2]: poor |
| O=C(O)Cc1c[nH]c2ccccc12 [Indole-3-acetic acid, reference compound] | – | 0% | – | % Edema Inhibition [1]: inactive |
| COC(=O)CCNC(=O)C(C)c1ccc(CC(C)C)cc1 (stereo not shown) [Compound 5a] | – | 14% | – | – |
| COc1cc(COC(=O)C2CCCN2C(=O)Cc2c[nH]c3ccccc23)cc(OC)c1OC (stereo not shown) [Compound 24, 3,4,5-Trimethoxybenzyl1-(2-(1H-indol-3-yl)acetyl)pyrrolidine-2carboxylate] | 58 to 60 °C | 0% | 128 µM | – |
| COc1cc(COC(=O)CCNC(=O)C(C)c2cccc(C(=O)c3ccccc3)c2)cc(OC)c1OC (stereo not shown) [Compound 16, 3,4,5-Trimethoxybenzyl 3-(2-(3-benzoylphenyl)propanamido)propanoate] | – | 91% | – | COX-1 % Inhibition (ovine COX-1): 28%; stability (hydrolysis, TLC) [3]: not hydrolyzed; % inhibition of lipoxygenase (soybean LOX; at 150 μΜ): 20%; % Edema Inhibition [1]: 91 *** %; stability (hydrolysis, TLC) [4]: not hydrolyzed |
| COC(=O)C(C)NC(=O)Cc1c[nH]c2ccccc12 (stereo not shown) [Compound 13a] | – | 18% | – | – |
| COc1cc(COC(=O)C(Cc2ccc(O)cc2)NC(=O)C(C)c2cccc(C(=O)c3ccccc3)c2)cc(OC)c1OC (stereo not shown) [Compound 22, 3,4,5-Trimethoxybenzyl 2-(2-(3-benzoylphenyl)propanamido)-3-(4-hydroxyphenyl) propanoate] | 68 to 70 °C | 59% | 85 µM | effect against lipid peroxidation [2]: poor |
